Assay results reported in publication PMC4303209, “A novel phosphatidylinositol 3-kinase (PI3K) inhibitor directs a potent FOXO-dependent, p53-independent cell cycle arrest phenotype characterized by the differential induction of a subset of FOXO-regulated genes” (Breast Cancer Research : BCR, 2014).
Entries after “also recorded” stand apart in the source; their conditions may differ.

How the values were obtained:
[1] = tested on: known toxicity pathways and canonical stress pathways; assay: Ingenuity Pathway Tox Analysis of genome-wide array data; format: cell-based, human; details: vs DMSO; MCF-7 array data
From the text: While our results highlight that the primary cellular response is an anti-proliferative response (as opposed to an apoptotic response), for the development of ETP-45658 as a potential therapeutic, we questioned if ETP-45658 exposure was associated with any degree of toxicity, one of the most fundamental questions for any proposed therapeutic. We conducted a genome-wide analysis utilising an Ingenuity Pathway Analysis algorithm to address if any known toxicity pathway(s) were activated or induced after treatment with ETP-45658 (or by the reference compound PI-103). This included an extensive evaluation of the cardiac necrosis stress cascade, genes implicated in kidney failure, liver necrosis and liver hematomegaly. Furthermore, we also questioned if, on a genome-wide scale, any know canonical stress pathways were activated by ETP-45658 (or PI-103) treatment. This included the p53 pathway, PTEN aldosterone, ErbB2-ErbB3 and the ERK-MAPK signalling cascades.
Figure 2 Focused toxicity and safety assessment of ETP-45658.

total p53 = assay: Immunoblot of total p53
Procedure: Sub-confluent cells were incubated under the conditions indicated in each figure and washed twice with phosphate-buffered saline (PBS) prior to lysis. RIPA lysis buffer was added (50 mM TrisHCl, 150 mM NaCl, 1% NP-40, 2 mM Na3VO4, 100 mM NaF, 20 mM Na4P2O7 and 1x protease inhibitor cocktail (Roche Molecular Biochemicals, Indianapolis, IN, USA). The membranes were incubated overnight for total AKT, phospho-serine-473-AKT, total p53 (DO1) (Santa Cruz Biotechnology, Dallas, TX, USA), phospho-threonine 32-FOXO3a (Merck Millipore, Darmstadt, Germany) and α-tubulin (Sigma-Aldrich). Secondary antibodies used were anti-mouse, goat or rabbit immunoglobulin G (IgG)-horseradish peroxidase (HRP) (Santa Cruz Biotechnology) as appropriate. Visualisation of bands was achieved using ChemiDoc imaging system (BioRad Laboratories Inc, Hercules, CA, USA) after membrane treatment with Ecl + (Amersham, Little Chalfont, UK).

[2] = tested on: serine 253-phosphorylated FOXO3a; assay: Immunoblot of FOXO3a phosphorylation in MCF-7 or U2OS cells; format: cell-based, human; details: breast or osteosarcoma cancer cells; six hours post treatment
[3] = tested on: MCF-7 breast cancer cells; assay: Quantitative real time PCR (qRT-PCR) of selected genes; format: cell-based, human
Procedure: Total RNA was extracted by using Tri-reagent (Sigma-Aldrich). Real-time PCR was performed on a CFX-96 PCR machine (BioRad) using the SsoFastSYBR™ green master mix (BioRad) and following the manufacturer’s guidelines. Data was analysed as described in [29] using the 2^-ΔΔCT methodology.
Figure 4 Genes regulated by FOXO transcription factor and validation of key differentially regulated genes. […] Gene expression in MCF-7 breast cancer cells treated at six and twelve hours with (B) 10 nM ETP-45658 or (C) 10 nM PI-103. In each graph, error bars indicate +/− standard deviation with each gene and condition evaluated in triplicate from N = 3 independent experiments. For each analysis P values are shown (<0.05 is considered significant).
Our genome-wide array and in vitro studies have elucidated that the predominant pathway activated following exposure to ETP-45658 (as well as following PI-103 treatment) was FOXO-mediated cell cycle arrest. […] To strengthen our findings further, we validated our genome-wide array results by quantitative real-time PCR (qRT-PCR). Based on our gene expression profiling data, we selected 11 differentially regulated key genes. […] In our last group, we selected the cyclin-dependent kinase inhibitor 1A (p21), which is regulated by both FOXO and p53, BCL2 binding component 3 (PUMA) and BCL2-associated X (BAX) that are regulated by p53. MCF-7 breast cancer cells were treated with ETP-45658 and six or twelve hours post treatment the total RNA was extracted. We evaluated the expression profile of each gene (normalised to GAPDH using the 2^-ΔΔCT method described in our Materials and methods section) (Figure 4B). […] This response was conserved between the MCF-7 breast cancer cell line (as we would predict based on our array studies) as well as the U2OS osteosarcoma cell line (data not shown).

mTOR = mTOR (Homo sapiens, UniProt P42345); assay: mTOR kinase assay (LanthaScreen); format: biochemical; details: for inhibitory activity against mTOR: Figure S1C
Procedure: (§1) The kinase activity of PI3Kα, PI3Kβ, PI3Kδ and PI3Kγ, mutant PI3Kα (H1047R and E542K) mammalian target of rapamycin (mTOR) and DNA-PK was measured as described previously. The protein kinase assays depicted in Figure S1 in Additional file 1 and Table S2 in Additional file 2 were performed at ProQinase, GmbH [18].
(§2) Supplementary file 13058_2014_482_MOESM1_ESM.jpeg: Additional file 1: Figure S1.: Comparative analysis of ETP-45658 and PI-103. (A) Chemical structure of ETP-45658 and PI-103. (B) Physiochemical properties of ETP-45658 and PI-103, including molecular polar surface area (PSA), partition coefficient (LogP), ACD clogD and solubility at two different pH values including Lipinsky’s Rule of Five (RoF) analysis. (C) Inhibitory activity against PI3K and mTOR. The kinase activity of PI3K was measured by using the commercial PI3-kinase HTRF™ assay mTOR activity by LanthaScreen™. (D) ETP-45658 and PI-103 screen against a panel of 24 kinases. The value shown indicates kinase inhibition (percentage +/− standard deviation) at 10 μM. (E) Migration of MDA-MB231 cells in a two compartment Boyden chamber for 72 hours in the presence of DMSO, ETP-45658 or PI-103 (N = 3). (JPEG 662 KB)

[4] = target: panel of 24 representative kinases; assay: Protein kinase panel screen (ProQinase); format: biochemical, human; details: 10 μM
Procedure: The protein kinase assays depicted in Figure S1 in Additional file 1 and Table S2 in Additional file 2 were performed at ProQinase, GmbH [18].
Our first objective was to analyse the biological activity of ETP-45658 including the physical and chemical properties of this compound compared to the reference pan-class I PI3K and mTOR inhibitor PI-103 [9]. We characterised the structure of each compound (Figure S1A in Additional file 1) and conducted the in silico analysis of each compound to measure their physiochemical properties (Figure S1B in Additional file 1). We determined the molecular polar surface area (PSA) of each compound, the partition coefficient, the distribution coefficient, compound solubility and the number of hydrogen donors and acceptors. […] Each indicated protein kinase activity was assayed following 10 μM treatment with either compound.
Supplementary file 13058_2014_482_MOESM1_ESM.jpeg: Additional file 1: Figure S1.: Comparative analysis of ETP-45658 and PI-103. (A) Chemical structure of ETP-45658 and PI-103. (B) Physiochemical properties of ETP-45658 and PI-103, including molecular polar surface area (PSA), partition coefficient (LogP), ACD clogD and solubility at two different pH values including Lipinsky’s Rule of Five (RoF) analysis. […] The kinase activity of PI3K was measured by using the commercial PI3-kinase HTRF™ assay mTOR activity by LanthaScreen™. […]

PI3K = assay: Kinase assay of PI3Kα, PI3Kβ, PI3Kδ, PI3Kγ and mutant PI3Kα (H1047R and E542K), PI3-kinase HTRF assay; format: biochemical; details: Figure S1C
Procedure: as §1, §2

Row | Structure (SMILES) | induction of known toxicity pathways (Ingenuity Pathway Tox Analysis) [1] | accumulation of total p53 (total p53) | serine 253-phosphorylated FOXO3a [2] | NISCH expression (array and qRT-PCR) [3] | qRT-PCR induction of p53-dependent genes [3] | qRT-PCR CCND1 transcription ([3]; 10 nM) | qRT-PCR expression of CCNG2, Cited2 and BRCA1 ([3]; 10 nM, six or twelve hours) | qRT-PCR TRAIL, FASLG or BCL2L11 transcription ([3]; six hours post treatment) | qRT-PCR TRAIL, FASLG or BCL2L11 transcription ([3]; twelve hours post treatment) | inhibitory activity against mTOR (mTOR) | potency against mTOR relative to PI-103 (mTOR; compared to reference compound PI-103) | kinases significantly inhibited in panel of 24 kinases [4] | inhibitory activity against PI3K (PI3K)
1 | Cn1ncc2c(N3CCOCC3)nc(-c3cccc(O)c3)nc21 [ETP-45658] | Neither ETP-45658 (nor PI-103) treatment significantly induced any known toxicity pathways | little to no p53 accumulation; also recorded: neither ETP-45658 (nor PI-103) triggered an accumulation | almost complete absence | significantly upregulated | no significant induction | significantly reduced | highly significant induction | no significant change | slight increase (less than two-fold) | inhibited | almost three times more potent | only mutated BRAF was significantly inhibited | potently inhibited
2 | Oc1cccc(-c2nc(N3CCOCC3)c3oc4ncccc4c3n2)c1 [PI-103] | Neither ETP-45658 (nor PI-103) treatment significantly induced any known toxicity pathways | neither ETP-45658 (nor PI-103) triggered an accumulation | almost complete absence | downregulated |  | significantly reduced |  |  |  | significantly less potent |  | only mutated BRAF was significantly inhibited | slightly more effective
